Experimental data from patent US20240140948A1, “PYRIDOPYRIMIDINE DERIVATIVES AS KRAS INHIBITORS” (BETA PHARMA, INC., priority 2021, published 2024).
Like-named read-outs stand apart in the source and are kept apart here. Values belong to the compound of their own block, whether it stands above or below them.

What was measured:
[1] = target: T1, KRAS G12C (Homo sapiens, UniProt P01116, G12C); assay: KRAS G12C/SOS1 Nucleotide Exchange Assay (SOS1-mediated Bodipy-GDP to GTP exchange); assay type: biochemical; conditions: substrate Bodipy-GDP/Kras G12C, 0.5% DMSO; 30 min pre-incubation at RT; dRFU analysis method for covalent inhibitors
T1 construct: aa 2-169, expressed in E. coli; His-tag (TEV cleavable) (N); purchased Reaction Biology Corporation (RBC) SOS1: RBC cat #MSC-11-502; KRAS G12C: none printed; host or cells: E. coli
T1 sequence (P01116 2-169 G12C): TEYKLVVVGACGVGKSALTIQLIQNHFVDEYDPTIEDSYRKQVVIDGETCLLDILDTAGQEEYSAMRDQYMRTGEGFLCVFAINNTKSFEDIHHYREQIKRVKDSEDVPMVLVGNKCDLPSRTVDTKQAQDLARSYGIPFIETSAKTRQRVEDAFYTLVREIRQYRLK
Description: The excess Bodipy-GDP is separated from loaded protein using a spin desalting column.
• 1. […] Deliver compounds in 100% DMSO into buffer using acoustic technology (Echo550; nanoliter range). • 3. […] Prepare 3× (SOS1+GTP) solution in reaction buffer. • 5. Deliver 5 μL of SOS1+GTP solution into reactions wells (deliver GTP only to column 1 for no SOS1 control). • 6.
where Yraw is defined as fluorescence at time t, Ao is the average initial fluorescence with no SOS1, and M is the minimum fluorescence at the end of the reaction at the maximum SOS1.
The background subtracted signals (no SOS1 protein wells were used as background) were converted to % activity relative to DMSO controls. Data was analyzed using GraphPad Prism 4 with “sigmoidal dose-response (variable slope)”; 4 parameters with Hill Slope. The constraints were bottom (constant equal to 0) and top (must be less than 120).

[2] = Pharmacokinetics in male CD-1 mice; assay type: in vivo; conditions: for MRT inf: read-out: MRT0-inf; for MRT last: read-out: MRT0-last
Description: The pharmacokinetic profile of the Example 2 (compound la) was determined in male CD-1 mice by WuXi AppTec Co., Ltd., 1318 Wuzhong Avenue, Wuzhong District, Suzhou, China, 215104.

[3] = mouse, 30 mg/kg PO, mean plasma

IC50 [1]: 27 nM
SMILES: C=CC(=O)N1CCN(c2nc(OC[C@@H]3CCCN3C)nc3cc(-c4cccc5cccc(Cl)c45)cnc23)C[C@@H]1CC#N [Example 1, 2-((S)-1-Acryloyl-4-(7-(8-chloronaphthalen-1-yl)-2-(((S)-1-methylpyrrolidin-2-yl)methoxy)pyrido[3,2-d]pyrimidin-4-yl)piperazin-2-yl)acetonitrile]

AUCExtra ([2]; 3 mg/kg IV, mean plasma): 9.23% | AUMCExtra ([2]; 3 mg/kg IV, mean plasma): 35.2% | Tlast ([2]; 3 mg/kg IV, mean plasma): 8.00 h | AUCExtra ([2]; 30 mg/kg PO, mean plasma): 17.1% | AUMCExtra ([2]; 30 mg/kg PO, mean plasma): 43.8% | Tlast ([2]; 30 mg/kg PO, mean plasma): 8.00 h | AUC(0-inf) ([2]; mouse, 3 mg/kg IV, mean plasma): 2450 ng·h/mL | AUC(0-t) ([2]; mouse, 3 mg/kg IV, mean plasma): 2220 ng·h/mL | C0 ([2]; mouse, 3 mg/kg IV, mean plasma): 1270 ng/mL | clearance ([2]; mouse, 3 mg/kg IV, mean plasma): 20.4 mL/min/kg | half-life ([2]; mouse, 3 mg/kg IV, mean plasma, Rsq_adj 0.828 (<0.9, might not be accurately estimated)): 1.89 h | MRT inf ([2]; mouse, 3 mg/kg IV, mean plasma): 2.81 h | MRT last ([2]; mouse, 3 mg/kg IV, mean plasma): 2 h | Vd ([2]; mouse, 3 mg/kg IV, mean plasma, read-out: Vdss): 3.44 L/kg | AUC(0-inf) [2, 3]: 7070 ng·h/mL | AUC(0-t) [2, 3]: 5860 ng·h/mL | Cmax [2, 3]: 1220 ng/mL | Tmax [2, 3]: 1 h | half-life [2, 3]: 2.88 h | MRT inf [2, 3]: 4.75 h | MRT last [2, 3]: 3.22 h | bioavailability ([2]; mouse, plasma, 30 mg/kg PO vs 3 mg/kg IV, calculated from AUC0-inf with nominal dose, read-out: Bioavailability (% F)): 28.8% | IC50 [1]: 63 nM
SMILES: C=C(F)C(=O)N1CCN(c2nc(OC[C@@H]3CCCN3C)nc3cc(-c4cccc5cccc(Cl)c45)cnc23)C[C@@H]1CC#N [Example 2, 2-((S)-4-(7-(8-Chloronaphthalen-1-yl)-2-(((S)-1-methylpyrrolidin-2-yl)methoxy)pyrido[3,2-d]pyrimidin-4-yl)-1-(2-fluoroacryloyl)piperazin-2-yl)acetonitrile]
